Laboratory results taken from US9062074B2, “(9E)-15-(2-pyrrolidin-1-yl-ethoxy)-7,12,25-trioxa-19,21,24-triaza-tetracyclo[18.3.1.1(2.5).1(14,18)]hexacosa-1(24),2,4,9,14,16,18(26),20,22-nonaene citrate salt” (CTI BioPharma Corp., priority 2009, dated 2015).

Experiment: Gravimetric Vapour Sorption (GVS)
Assay type: physicochemical
Procedure: Sorption isotherms were obtained using a SMS DVS Intrinsic moisture sorption analyser, controlled by SMS Analysis Suite software. The sample temperature was maintained at 25° C. by the instrument controls. The humidity was controlled by mixing streams of dry and wet nitrogen, with a total flow rate of 200 ml.min^−1. The relative humidity was measured by a calibrated Rotronic probe (dynamic range of 1.0-100% RH), located near the sample. The weight change, (mass relaxation) of the sample as a function of % RH was constantly monitored by the microbalance (accuracy ±0.005 mg). Typically 5-20 mg of sample was placed in a tared mesh stainless steel basket under ambient conditions. The sample was loaded and unloaded at 40% RH and 25° C. (typical room conditions). A moisture sorption isotherm was performed as outlined below (2 scans giving 1 complete cycle). The standard isotherm was performed at 25° C. at 10% RH intervals over a 0.5-90% RH range.
The hygroscopicity of the citrate was investigated by carrying out a gravimetric vapour sorption experiment on Batch 4. A sample of approximately 20 mg was held at 25° C. whilst the humidity of its environment was changed through two complete cycles. […] The sample takes longer to reach equilibrium in the early stages of the experiment. This may be due to displacement of residual solvent.

SMILES: C1=C2COC/C=C/COCc3cc(ccc3OCCN3CCCC3)Nc3nccc(n3)C(=C1)O2 [Batch 4]
- Gravimetric Vapour Sorption Max weight change: < 1%
- Sorp Mass Change (Cycle 1 adsorption, Target RH 40.0%, 25° C.): −0.1186%
- Sorp Mass Change (Cycle 1 adsorption, Target RH 50.0%, 25° C.): −0.0817%
- Sorp Mass Change (Cycle 1 adsorption, Target RH 60.0%, 25° C.): 0.0329%
- Sorp Mass Change (Cycle 1 adsorption, Target RH 70.0%, 25° C.): 0.1086%
- Sorp Mass Change (Cycle 1 adsorption, Target RH 80.0%, 25° C.): 0.2342%
- Sorp Mass Change (Cycle 1 adsorption, Target RH 90.0%, 25° C.): 0.5631%
- Sorp Mass Change (Cycle 1 desorption, Target RH 0.0%, 25° C.): −0.2816%
- Sorp Mass Change (Cycle 1 desorption, Target RH 10.0%, 25° C.): −0.2093%
- Sorp Mass Change (Cycle 1 desorption, Target RH 20.0%, 25° C.): −0.1545%
- Sorp Mass Change (Cycle 1 desorption, Target RH 30.0%, 25° C.): −0.1076%
- Sorp Mass Change (Cycle 1 desorption, Target RH 40.0%, 25° C.): −0.0548%
- Sorp Mass Change (Cycle 1 desorption, Target RH 50.0%, 25° C.): 0.0100%
- Sorp Mass Change (Cycle 1 desorption, Target RH 60.0%, 25° C.): 0.0743%
- Sorp Mass Change (Cycle 1 desorption, Target RH 70.0%, 25° C.): 0.1610%
- Sorp Mass Change (Cycle 1 desorption, Target RH 80.0%, 25° C.): 0.2905%
- Sorp Mass Change (Cycle 1 desorption, Target RH 90.0%, 25° C.): 0.5631%
- Sorp Mass Change (Cycle 1 readsorption, Target RH 0.0%, 25° C.): −0.2816%
- Sorp Mass Change (Cycle 1 readsorption, Target RH 10.0%, 25° C.): −0.2138%
- Sorp Mass Change (Cycle 1 readsorption, Target RH 20.0%, 25° C.): −0.1620%
- Sorp Mass Change (Cycle 1 readsorption, Target RH 30.0%, 25° C.): −0.1146%
- Sorp Mass Change (Cycle 1 readsorption, Target RH 40.0%, 25° C.): −0.0643%
- Sorp Mass Change (Cycle 2 desorption (first segment, RH 40 to 90), Target RH 40.0%, 25° C.): −0.0643%
- Sorp Mass Change (Cycle 2 desorption (first segment, RH 40 to 90), Target RH 50.0%, 25° C.): −0.0100%
- Sorp Mass Change (Cycle 2 desorption (first segment, RH 40 to 90), Target RH 60.0%, 25° C.): 0.0513%
- Sorp Mass Change (Cycle 2 desorption (first segment, RH 40 to 90), Target RH 70.0%, 25° C.): 0.1281%
- Sorp Mass Change (Cycle 2 desorption (first segment, RH 40 to 90), Target RH 80.0%, 25° C.): 0.2567%
- Sorp Mass Change (Cycle 2 desorption (first segment, RH 40 to 90), Target RH 90.0%, 25° C.): 0.5397%
- Sorp Mass Change (Cycle 2 desorption (second segment, RH 90 to 0), Target RH 0.0%, 25° C.): −0.2836%
- Sorp Mass Change (Cycle 2 desorption (second segment, RH 90 to 0), Target RH 10.0%, 25° C.): −0.2093%
- Sorp Mass Change (Cycle 2 desorption (second segment, RH 90 to 0), Target RH 20.0%, 25° C.): −0.1565%
- Sorp Mass Change (Cycle 2 desorption (second segment, RH 90 to 0), Target RH 30.0%, 25° C.): −0.1032%
- Sorp Mass Change (Cycle 2 desorption (second segment, RH 90 to 0), Target RH 40.0%, 25° C.): −0.0528%
- Sorp Mass Change (Cycle 2 desorption (second segment, RH 90 to 0), Target RH 50.0%, 25° C.): 0.0045%
- Sorp Mass Change (Cycle 2 desorption (second segment, RH 90 to 0), Target RH 60.0%, 25° C.): 0.0738%
- Sorp Mass Change (Cycle 2 desorption (second segment, RH 90 to 0), Target RH 70.0%, 25° C.): 0.1535%
- Sorp Mass Change (Cycle 2 desorption (second segment, RH 90 to 0), Target RH 80.0%, 25° C.): 0.2771%
- Sorp Mass Change (Cycle 2 desorption (second segment, RH 90 to 0), Target RH 90.0%, 25° C.): 0.5397%
- Sorp Mass Change (Cycle 2 readsorption, Target RH 0.0%, 25° C.): −0.2863%
- Sorp Mass Change (Cycle 2 readsorption, Target RH 10.0%, 25° C.): −0.2168%
- Sorp Mass Change (Cycle 2 readsorption, Target RH 20.0%, 25° C.): −0.1630%
- Sorp Mass Change (Cycle 2 readsorption, Target RH 30.0%, 25° C.): −0.1116%
- Sorp Mass Change (Cycle 2 readsorption, Target RH 40.0%, 25° C.): −0.0653%
- water taken up (isotherm plot) (between 40% RH and 90% RH, 25° C.): < 0.6%
- phase change after GVS experiment (XRPD) (sample retrieved at end of GVS): no overall phase change
